These results are taken from ChEMBL document CHEMBL1201862, “PubChem BioAssay data set” (2004).

What all share (test): NCI anticancer screen, dose series, 48 h
For test [1], the system named is HCC 2998.
Test [2] relates to HOP-92.
Test [3] deals with MOLT-4.
The subject of test [4] is OVCAR-8.
Test [5] relates to NCI-H226.
In test [6] the test system is NCI-H23.
For test [7], the system named is OVCAR-3.
The test system of test [8] is UACC-257.
For test [9], the system named is KM12.
The subject of test [10] is Malme-3M.
Test [11] deals with SF-295.
Test [12] deals with HT-29.
Test [13] deals with EKVX.
Test [14] relates to SNB-19.
Test [15] deals with SK-MEL-28.
The subject of test [16] is HCT-15.
In test [17] the test system is COLO 205.
Test [18] concerns SR.
Test [19] concerns OVCAR-4.

Each structure is given as a SMILES string.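 In this assay, cells in 96-well plates receive the compound at five concentrations for 48 hours. Endpoints are linearly interpolated between the surrounding concentrations. GI50 = concentration required for 50% inhibition of growth.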 The source made the active and inactive calls. Rule as the data show it: active = GI50 up to about 1.1 µM and inactive = higher.

Regarding `CNC(=O)CCCNC(=O)CCCC(=O)N(C)C`, the GI50 in [1], in test [2], in test [3], in [4], in [5] and in [6] was > 100 µM (inactive) in each case. Further, the GI50 in test [7], in [8], in test [9], in test [10], in test [11] and in test [12] was > 100 µM (inactive) throughout. Also, the GI50 is > 100 µM (inactive) in [13]; > 100 µM (inactive) in test [14]; > 100 µM (inactive) in test [15]; above 100 µM in test [16]; > 100 µM (inactive) in [17].
Take `Cc1c2c(n(C)c1C)C(=O)C1C(C2=O)C2(C)c3ccccc3C1(C)c1ccccc12` (stereo not given): the GI50 in test [3] was > 100 µM (inactive); in test [4], > 100 µM (inactive); in test [5] it was > 100 µM (inactive); in test [6], > 100 µM (inactive); in test [7], > 100 µM (inactive); in [18], 24.4 µM (inactive). Besides, the GI50 in [8], in [9], in test [10], in [11], in test [12] and in test [13] was > 100 µM (inactive) in each case. The GI50 in test [14] is > 100 µM (inactive); in [15], > 100 µM (inactive); in test [16] it was above 100 µM; in test [17], > 100 µM (inactive).
In the case of `O=C1C[C@@H](c2ccc(O)cc2)[C@@]2(O1)C(=O)O[C@H]([C@@H](O)CO)[C@@H]2O`, the GI50 in test [1], in test [2], in test [3], in [4], in test [5] and in [6] was > 100 µM (inactive) throughout. In addition, the GI50 in test [7], in test [8], in [19], in test [9], in test [10] and in test [11] was > 100 µM (inactive) throughout. Further, the GI50 in [12] was > 100 µM (inactive); in [13], > 100 µM (inactive); in [14] it was > 100 µM (inactive); in test [15], > 100 µM (inactive); in test [16], above 100 µM; in test [17], > 100 µM (inactive).
For the molecule `CC(=O)OC/C=C(\C)CCC(Br)C(C)(C)Br` (stereo not given), the GI50 in test [1], in test [3], in [4], in test [5], in test [6] and in test [7] was > 10 µM (inactive) in each case. Further, the GI50 in [8], in test [19], in test [9], in [10], in test [11] and in test [12] was > 10 µM (inactive) each time. The GI50 in [13] was > 10 µM (inactive); in test [14], > 10 µM (inactive); in test [15], > 10 µM (inactive); in [16], above 10 µM; in test [17], > 10 µM (inactive).
In the case of `CN(C)c1ccc(/C=C2\C[C@H]3[C@@H]4CC=C5C[C@@H](O)CC[C@]5(C)[C@H]4CC[C@]3(C)[C@H]2O)cc1`, the GI50 in test [3] was 32 µM (inactive); in test [4] it was 3.84 µM (inactive); in test [5], 17.4 µM (inactive); in [6], 15.9 µM (inactive); in test [7] it was 22.5 µM (inactive); in test [18] it was 21 µM (inactive). Also, the GI50 in test [8] is 18.2 µM (inactive); in [19], 35.6 µM (inactive); in test [9], 36 µM (inactive); in test [10], 19.9 µM (inactive); in test [11], 20 µM (inactive); in [12], 8.09 µM (inactive). Further, the GI50 in [13] was 4.81 µM (inactive); in test [14], 15.7 µM (inactive); in test [15], 20.4 µM (inactive); in [16] it was 15.7 µM; in [17], 11 µM (inactive).
For the molecule `CCOC(=O)NC(Nc1ccc(C)cc1)(C(F)(F)F)C(F)(F)F`, the GI50 in [1], in test [2], in [3], in [4], in [5] and in [6] was > 100 µM (inactive) in each case. Further, the GI50 in test [7], in test [19], in test [9], in test [10], in test [11] and in [12] was > 100 µM (inactive) each time. The GI50 in test [14] was > 100 µM (inactive); in test [15] it was > 100 µM (inactive); in test [16] it was above 100 µM; in [17], > 100 µM (inactive).
For the molecule `CC(=O)c1ccc2c(c1)oc(=O)n2CCN1CCCCC1`, the GI50 in test [3], in test [4], in [5], in test [6], in [7] and in [18] was > 100 µM (inactive) each time. For the same molecule, the GI50 in test [8] is > 100 µM (inactive); in test [9] it was > 100 µM (inactive); in [10] it was 2.79 µM (inactive); in test [11] it was > 100 µM (inactive); in test [12] it was > 100 µM (inactive); in [13], > 100 µM (inactive). Besides, the GI50 is > 100 µM (inactive) in test [14], > 100 µM (inactive) in [15], above 100 µM in test [16] and > 100 µM (inactive) in test [17].
Regarding `CC(C)=NNC1=NC(C)(C)P(=O)(NNc2ncccn2)S1` (stereo not given), the GI50 in [1], in test [2], in [3], in test [4], in [6] and in [7] was > 100 µM (inactive) each time. The GI50 in test [8], in [19], in test [11], in [12], in [13] and in [14] was > 100 µM (inactive) in each case. The GI50 in test [15] was > 100 µM (inactive); in test [16], above 100 µM.
In the case of `Cn1c(N2CCCC2)c(C=O)c(=O)n(C)c1=O`, the GI50 is > 100 µM (inactive) in [1]; > 100 µM (inactive) in test [2]; > 100 µM (inactive) in [3]; > 100 µM (inactive) in test [4]; 51.8 µM (inactive) in test [5]; > 100 µM (inactive) in test [6]. The GI50 was > 100 µM (inactive) in [7]; > 100 µM (inactive) in test [8]; > 100 µM (inactive) in [19]; > 100 µM (inactive) in test [9]; 78.5 µM (inactive) in test [10]; > 100 µM (inactive) in test [11]. The GI50 in test [12] is > 100 µM (inactive); in test [13], > 100 µM (inactive); in [14], > 100 µM (inactive); in [15], > 100 µM (inactive); in test [16], above 100 µM; in [17], > 100 µM (inactive).
Turning to `Nc1ccc2c(c1)S(=O)(=O)c1cc(N)ccc1-2`, the GI50 in test [1], in [2], in test [3], in test [4], in test [5] and in test [6] was > 100 µM (inactive) in each case. The GI50 in test [7], in test [8], in [19], in test [9], in test [11] and in test [12] was > 100 µM (inactive) in each case. In addition, the GI50 in test [13] is > 100 µM (inactive); in test [14] it was > 100 µM (inactive); in test [16] it was above 100 µM; in test [17], > 100 µM (inactive).
For `Cc1nn(-c2ccccc2)c2nc3c(c(C)nn3-c3ccccc3)c(-c3ccc(C(F)(F)F)cc3)c12`, the GI50 in test [1], in test [2], in [3], in [4], in test [5] and in test [6] was > 100 µM (inactive) each time. In addition, the GI50 in [7] was > 100 µM (inactive); in test [8] it was > 100 µM (inactive); in [19] it was > 100 µM (inactive); in test [9] it was > 100 µM (inactive); in test [11], > 100 µM (inactive); in test [12] it was 52.8 µM (inactive). Besides, the GI50 in test [13] is > 100 µM (inactive); in test [14], 96.2 µM (inactive); in test [15] it was > 100 µM (inactive); in test [16], above 100 µM; in test [17], > 100 µM (inactive).
On to `CSCCCNC(=O)c1csc(-c2csc(CCNC(=O)CNC(=O)CNC(=O)CNC(=O)OC(C)(C)C)n2)n1`, for which the GI50 in test [1], in test [2], in [3], in [4], in test [5] and in [6] was > 100 µM (inactive) each time. In addition, the GI50 in [7], in [8], in [19], in test [9], in test [10] and in test [11] was > 100 µM (inactive) each time. For the same molecule, the GI50 was > 100 µM (inactive) in test [12]; > 100 µM (inactive) in [13]; > 100 µM (inactive) in [14]; > 100 µM (inactive) in [15]; above 100 µM in test [16]; > 100 µM (inactive) in test [17].
